Bounds are passed on as bounds.

T1 sequence (P26663 2420-3010): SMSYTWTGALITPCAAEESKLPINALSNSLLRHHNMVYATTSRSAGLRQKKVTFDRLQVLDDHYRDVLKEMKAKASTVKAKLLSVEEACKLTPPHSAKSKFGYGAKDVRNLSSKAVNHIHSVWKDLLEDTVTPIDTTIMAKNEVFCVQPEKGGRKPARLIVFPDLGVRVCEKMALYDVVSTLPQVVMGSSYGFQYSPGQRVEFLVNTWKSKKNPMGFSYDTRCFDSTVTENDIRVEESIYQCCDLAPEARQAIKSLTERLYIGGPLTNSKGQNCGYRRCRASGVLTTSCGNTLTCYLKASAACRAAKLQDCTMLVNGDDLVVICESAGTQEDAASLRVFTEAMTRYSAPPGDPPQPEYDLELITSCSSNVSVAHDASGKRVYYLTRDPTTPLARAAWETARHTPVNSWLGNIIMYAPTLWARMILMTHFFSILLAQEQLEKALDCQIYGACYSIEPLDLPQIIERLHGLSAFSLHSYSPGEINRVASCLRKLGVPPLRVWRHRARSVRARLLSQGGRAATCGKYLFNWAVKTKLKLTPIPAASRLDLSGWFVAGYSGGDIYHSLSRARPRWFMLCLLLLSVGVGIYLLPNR

The experiment concerns the target T1, Recombinant HCV polymerase (Hepatitis C virus genotype 1b, UniProt P26663).
T1 construct: 2.5 pmoles (0.15 μg) HCV polymerase protein
The experiment is described as follows: HCV Polymerase Inhibition Assay. The class given is biochemical. The note with it: primer/template-directed transcription, 30 minutes at 30° C.; category symbol. The procedure:
The above-described compounds were tested for activity with HCV polymerase. Recombinant HCV polymerase was tested for its ability to perform primer/template-directed transcription in assays that contained 30 mM tris-HCl pH 7.2, 10 mM MgCl2, 20 mM NaCl, 1 mM Dithiothreitol (DTT), 0.05% Tween-20, 1% glycerol, 5 pmoles biotin-dG12 (primer), 0.5 pmoles poly(rC)300 (template), 1 μM GTP, 0.1–0.3 uCi α-^32P-GTP, and 2.5 pmoles (0.15 μg) HCV polymerase protein in a final volume of 75 μL. Reactions were initiated by addition of enzyme and incubated 30 minutes at 30° C. Reactions were stopped by addition of 33 mM EDTA, and polynucleotide products were collected by filtration through Diethylaminoethyl (DE) Filtermat papers (Wallac). Unincorporated triphosphate was removed by washing the filters with 5% dibasic sodium phosphate. The filters were counted in a Packard Tri-Lux Microbeta scintillation counter (Packard Bioscience, Meriden, Conn.). Compounds to be tested were added at various concentrations, e.g., 1 μm to 50 μm, from stocks in 10% DMSO-water (final DMSO is 1% in reaction).
IC50 values were estimated from the primary cpm data (collected in triplicate) using the formula: cpm (I)=cpm (no inhibitor)(1−([I]/([I]+IC50))). An IC50 value represents the concentration (in μM) of a compound that provides 50% inhibition of polymerase-directed transcription in the above assay. A percent inhibition value is expressed for a compound where it was impractical to calculate an IC50 value with available data. If the IC50 estimated by the above equation was less than 200 nM, it was recalculated using the following equation, which takes into account the enzyme concentration (30 nM) in the assay: cpm(I)=cpm(no inhibitor)(1−((((I+IC50+30e−9)−sqrt(((I+IC50+30e−9)^2)−4×30e−9×I)))/((2) (30e−9))). Curve fitting was performed using the program KaleidaGraph (Synergy Software, Reading, Pa.).
Broadly, the IC50 is the concentration at which inhibition is half-maximal. Take `CC(=O)C1C(=O)CC(CCc2cccc(Cl)c2)(C2CCCC2)OC1=O` (stereo not drawn) [Example 167, 3-Acetyl-6-[2-(3-chloro-phenyl)-ethyl]-6-cyclopentyl-dihydro-pyran-2,4-dione]: the IC50 lay in the range of 10 to 50 µM.
Then `O=C1C=C(O)CC(CCC2CCCC2)(C2CCCC2)O1` (stereo not drawn) [Example 150, 6-Cyclopentyl-6-(2-cyclopentyl-ethyl)-4-hydroxy-5,6-dihydro-pyran-2-one], with 10 to 50 µM; and `COc1cccc(CC2C(=O)CC(CCc3ccc(OC)cc3OC)(C3CCCC3)OC2=O)c1` (stereo not drawn) [Example 162, 6-Cyclopentyl-6-[2-(2,4-dimethoxy-phenyl)-ethyl]-3-(3-methoxy-benzyl)-dihydro-pyran-2,4-dione], with 1 to 10 µM.
As to `CCOc1ccc(CCC2(C3CCCC3)CC(=O)CC(=O)O2)cc1` (stereo not drawn) [Example 25, 6-Cyclopentyl-6-[2-(4-ethoxy-phenyl)-ethyl]-dihydro-pyran-2,4-dione], the IC50 lay within 1 to 10 µM.
Take `COc1ccc(CCC2(C3CCCC3)CC(=O)C(Oc3ccccc3)C(=O)O2)c(OC)c1` (stereo not drawn) [Example 163, 6-Cyclopentyl-6-[2-(2,4-dimethoxy-phenyl)-ethyl]-3-phenoxy-dihydro-pyran-2,4-dione]: the IC50 lay within 10 to 50 µM.
Then `COc1ccc(CCC2(C3CCCC3)CC(=O)C(Oc3ccc(Cl)cc3)C(=O)O2)c(OC)c1` (stereo not drawn) [Example 164, 3-(4-Chloro-phenoxy)-6-cyclopentyl-6-[2-(2,4-dimethoxy-phenyl)-ethyl]-dihydro-pyran-2,4-dione], with 10 to 50 µM.
Then `CCOC(=O)c1cnc(SC2=C(O)CC(CCc3cc(Cl)c(OC)cc3OC)(C3CCCC3)OC2=O)[nH]1` (stereo not drawn) [Example 100, Ethyl 2-({6-[2-(5-chloro-2,4-dimethoxyphenyl)ethyl]-6-cyclopentyl-4-hydroxy-2-oxo-5,6-dihydro-2H-pyran-3-yl}thio)-1H-imidazol-4-carboxylate], with < 1 µM; and `COc1ccc(CCC2(C3CCCC3)CC(=O)CC(=O)O2)c(C#N)c1` (stereo not drawn) [Example 7, 2-[2-(2-Cyclopentyl-4,6-dioxo-tetrahydro-pyran-2-yl)-ethyl]-5-methoxy-benzonitrile], with 10 to 50 µM; and “6-[2-(3-Chloro-4-isopropoxy-phenyl)-ethyl]-6-cyclopentyl-3-(5,7-dimethyl-[1,2,4]triazolo[1,5-a]pyrimidin-2-ylsulfanyl)-4-hydroxy-5,6-dihydro-pyran-2-one [Example 129]”, with < 1 µM.
For `COc1ccc(CCC2(C3CCCC3)CC(=O)C(C(=O)Cc3cccnc3)C(=O)O2)cc1` (stereo not drawn) [Example 173, 6-Cyclopentyl-6-[2-(4-methoxy-phenyl)-ethyl]-3-(2-pyridin-3-yl-acetyl)-dihydro-pyran-2,4-dione] the value was 1 to 10 µM; for `CC(C)(C)OC(=O)NCC(C)(C)c1cccc(CCC2(C3CCCC3)CC(=O)CC(=O)O2)c1` (stereo not drawn) [Example 14, (2-{3-[2-(2-Cyclopentyl-4,6-dioxo-tetrahydro-pyran-2-yl)-ethyl]-phenyl}-2-methyl-propyl)-carbamic acid tert-butyl ester], 10 to 50 µM.
As to `CCOc1ccc(CCC2(C3CCCC3)CC(=O)CC(=O)O2)cc1F` (stereo not drawn) [Example 71, 6-Cyclopentyl-6-[2-(4-ethoxy-3-fluoro-phenyl)-ethyl]-dihydro-pyran-2,4-dione], the IC50 is < 1 µM.
Take `COc1ccc(CCC2(C3CCCC3)CC(O)=C(Sc3nc4ccccc4o3)C(=O)O2)cc1Cl` (stereo not drawn) [Example 127, 3-(Benzooxazol-2-ylsulfanyl)-6-[2-(3-chloro-4-methoxy-phenyl)-ethyl]-6-cyclopentyl-4-hydroxy-5,6-dihydro-pyran-2-one]: the IC50 is < 1 µM.
For `O=C1CC(=O)OC(CCc2cccc(Cl)c2)(C2CCCC2)C1` (stereo not drawn) [Example 26, 6-[2-(3-Chloro-phenyl)-ethyl]-6-cyclopentyl-dihydro-pyran-2,4-dione] the value was 1 to 10 µM.
For `CC(=O)c1ccc(CCC2(C3CCCC3)CC(=O)CC(=O)O2)cc1F` (stereo not drawn) [Example 59, 6-[2-(4-Acetyl-3-fluoro-phenyl)-ethyl]-6-cyclopentyl-dihydro-pyran-2,4-dione] the value was 1 to 10 µM; for `O=C1CC(=O)OC(CCc2ccc(OCC3CC3)c(F)c2)(C2CCCC2)C1` (stereo not drawn) [Example 57, 6-Cyclopentyl-6-[2-(4-cyclopropylmethoxy-3-fluoro-phenyl)-ethyl]-dihydro-pyran-2,4-dione], 1 to 10 µM.
Take `O=C1CC(=O)OC(CCc2ccccc2CO)(C2CCCC2)C1` (stereo not drawn) [Example 6, 6-Cyclopentyl-6-[2-(2-hydroxymethylphenyl)ethyl]dihydropyran-2,4-dione]: the IC50 was 10 to 50 µM.
Then `COc1ccc(CCC2(C3CCCC3)CC(=O)CC(=O)O2)cn1` (stereo not drawn) [Example 8, 6-cyclopentyl-6-[2-(6-methoxypyridin-3-yl)ethyl]dihydro-2H-pyran-2,4(3H)-dione], with 10 to 50 µM; and `COc1ccc(CCC2(C3CCCC3)CC(O)=C(Sc3nc(O)c4cc[nH]c4n3)C(=O)O2)cc1` (stereo not drawn) [Example 113, 6-Cyclopentyl-4-hydroxy-3-[(4-hydroxy-7H-pyrrolo[2,3-d]pyrimidin-2-yl)thio]-6-[2-(4-methoxyphenyl)ethyl]-5,6-dihydro-2H-pyran-2-one], with < 1 µM.
Then `COC1=CC(=O)OC(CCc2cccc(C(C)C)c2)(C2CCCC2)C1` (stereo not drawn) [Example 34, 6-Cyclopentyl-6-[2-(3-isopropyl)-ethyl]-4-methyoxy-5,6-dihydro-pyran-2-one], with 10 to 50 µM; and `CC(C)(C)c1cccc(CCC2(C3CCCC3)CC(=O)CC(=O)O2)c1` (stereo not drawn) [Example 11, 6-[2-(3-tert-butyl-phenyl)-ethyl]-6-cyclopentyl-dihydro-pyran-2,4-dione], with 1 to 10 µM.
For `O=C1CC(=O)OC(CCc2nccs2)(C2CCCC2)C1` (stereo not drawn) [Example 12, 6-Cyclopentyl-6-(2-thiazol-2-yl-ethyl)-dihydro-pyran-2,4-dione], the IC50 was > 50 µM.
For `O=C1CC(=O)OC(CCc2ccc(C(=O)N3CC[C@H](O)C3)cc2)(C2CCCC2)C1` (stereo in doubt) [Example 69, 6-Cyclopentyl-6-{2-[4-(3-hydroxy-pyrrolidine-1-carbonyl)-phenyl]-ethyl}-dihydro-pyran-2,4-dione] the value was 10 to 50 µM; for `COc1ccc(CCC2(C3CCCC3)CC(=O)CC(=O)O2)c(OC)c1` (stereo not drawn) [Example 38, 6-Cyclopentyl-6-[2-(2,4-dimethoxy-phenyl)-ethyl]-dihydro-pyran-2,4-dione], 10 to 50 µM; for `CS(=O)(=O)c1ccc(CCC2(C3CCCC3)CC(=O)CC(=O)O2)cc1` (stereo not drawn) [Example 28, 6-Cyclopentyl-6-[2-(4-methanesulfonyl-phenyl)-ethyl]-dihydro-pyran-2,4-dione], 1 to 10 µM.
For `O=C(Cc1ccccc1)C1C(=O)CC(CCc2cccc(Cl)c2)(C2CCCC2)OC1=O` (stereo not drawn) [Example 170, 6-[2-(3-Chloro-phenyl)-ethyl]-6-cyclopentyl-3-phenylacetyl-dihydro-pyran-2,4-dione] the value was 10 to 50 µM.
For `COc1ccc(CCC2(C3CCCC3)CC(O)=C(Sc3nc(N)n[nH]3)C(=O)O2)cc1` (stereo not drawn) [Example 115, 3-[(3-Amino-1H-1,2,4-triazol-5-yl)thio]-6-cyclopentyl-4-hydroxy-6-[2-(4-methoxyphenyl)ethyl]-5,6-dihydro-2H-pyran-2-one] the value was 1 to 10 µM.

Source of the values: patent publication US7115658B2 (priority 2002, dated 2006).
